According to patent US11834434B2, “Substituted 2-heteroaryloxypyridines and salts thereof and their use as herbicidal agents” (Bayer Aktiengesellschaft, priority 2018, dated 2023):

How the values were obtained:
Type in all cases: in vivo
[1] = test system: Amaranthus retroflexus (AMARE); assay: Pre-emergence herbicidal action against Amaranthus retroflexus; conditions: 1280 g/ha; scored visually after about 3 weeks vs untreated controls; 100% = plants have died, 0% = like control plants
Procedure, shortened: (§1)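 Activity is a visually scored percentage relative to untreated controls, taken about 3 weeks after treatment in a greenhouse. Test compounds, formulated as wettable powders or emulsion concentrates with 0.5% additive, were applied at 1280 g/ha in 600 L/ha water onto soil covering freshly sown seeds.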

Poa annua (POAAN) [2] = assay: Post-emergence herbicidal action against Poa annua; conditions: 1280 g/ha; rated visually after about 3 weeks vs untreated controls; 100% = plants have died, 0% = like control plants
Procedure: (§2) Seeds of mono- and dicotyledonous weed plants were placed in plastic pots in sandy loam soil (doubly sown with in each case one species of mono- or dicotyledonous weed plants per pot), covered with soil and cultivated in a greenhouse under controlled growth conditions. 2 to 3 weeks after sowing, the test plants were treated at the one-leaf stage. The compounds of the invention, formulated in the form of wettable powders (WP) or as emulsion concentrates (EC), were applied onto the green parts of the plants as aqueous suspension or emulsion with addition of 0.5% additive at a water application rate of 600 liters per hectare (converted). After the test plants had been kept in the greenhouse under optimum growth conditions for about 3 weeks, the activity of the preparations was rated visually in comparison to untreated controls. For example, 100% activity=the plants have died, 0% activity=like control plants. Tables B1 to B8 below show the effects of selected compounds of the general formula (I) according to Table 1 on various harmful plants and an application rate corresponding to 1280 g/ha, which were obtained by the experimental procedure mentioned above.

[3] = test system: Echinochloa crus-galli (ECHCG); assay: Pre-emergence herbicidal action against Echinochloa crus-galli; conditions: 1280 g/ha; scored visually after about 3 weeks vs untreated controls; 100% = plants have died, 0% = like control plants
Procedure, shortened: as §1

Setaria viridis (SETVI) = assay: Pre-emergence herbicidal action against Setaria viridis; conditions: 1280 g/ha; scored visually after about 3 weeks vs untreated controls; 100% = plants have died, 0% = like control plants
Procedure, shortened: as §1

[4] = test system: Abutilon theophrasti (ABUTH); assay: Pre-emergence herbicidal action against Abutilon theophrasti; conditions: 1280 g/ha; scored visually after about 3 weeks vs untreated controls; 100% = plants have died, 0% = like control plants
Procedure, shortened: as §1

Poa annua (POAAN) [5] = assay: Pre-emergence herbicidal action against Poa annua; conditions: 1280 g/ha; scored visually after about 3 weeks vs untreated controls; 100% = plants have died, 0% = like control plants
Procedure, shortened: as §1

[6] = test system: Abutilon theophrasti (ABUTH); assay: Post-emergence herbicidal action against Abutilon theophrasti; conditions: 1280 g/ha; rated visually after about 3 weeks vs untreated controls; 100% = plants have died, 0% = like control plants
Procedure: as §2

Stellaria media (STEME) [7] = assay: Pre-emergence herbicidal action against Stellaria media; conditions: 1280 g/ha; scored visually after about 3 weeks vs untreated controls; 100% = plants have died, 0% = like control plants
Procedure, shortened: as §1

[8] = test system: Matricaria inodora (MATIN); assay: Pre-emergence herbicidal action against Matricaria inodora; conditions: 1280 g/ha; scored visually after about 3 weeks vs untreated controls; 100% = plants have died, 0% = like control plants
Procedure, shortened: as §1

Lolium rigidum (LOLRI) = assay: Pre-emergence herbicidal action against Lolium rigidum; conditions: 1280 g/ha; scored visually after about 3 weeks vs untreated controls; 100% = plants have died, 0% = like control plants
Procedure, shortened: as §1

[9] = test system: Echinochloa crus-galli (ECHCG); assay: Post-emergence herbicidal action against Echinochloa crus-galli; conditions: 1280 g/ha; rated visually after about 3 weeks vs untreated controls; 100% = plants have died, 0% = like control plants
Procedure: as §2

[10] = test system: Amaranthus retroflexus (AMARE); assay: Post-emergence herbicidal action against Amaranthus retroflexus; conditions: 1280 g/ha; rated visually after about 3 weeks vs untreated controls; 100% = plants have died, 0% = like control plants
Procedure, shortened: (§3)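 Weeds sown in sandy loam, grown in greenhouse and treated at one-leaf stage (2–3 weeks after sowing) with WP or EC formulations as aqueous spray plus 0.5% additive at 600 L/ha water. Application rate 1280 g/ha. Visual rating after about 3 weeks versus untreated controls (100% = plants dead, 0% = like control).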

Stellaria media (STEME) [11] = assay: Post-emergence herbicidal action against Stellaria media; conditions: 1280 g/ha; rated visually after about 3 weeks vs untreated controls; 100% = plants have died, 0% = like control plants
Procedure, shortened: as §3

[12] = test system: Matricaria inodora (MATIN); assay: Post-emergence herbicidal action against Matricaria inodora; conditions: 1280 g/ha; rated visually after about 3 weeks vs untreated controls; 100% = plants have died, 0% = like control plants; column head prints STEME
Procedure: as §2

Compound	Pre-emergence action against Amaranthus retroflexus (AMARE) [1]	Post-emergence action against Poa annua (POAAN) (Poa annua (POAAN) [2])	Pre-emergence action against Echinochloa crus-galli (ECHCG) [3]	Pre-emergence action against Setaria viridis (SETVI) (Setaria viridis (SETVI))	Pre-emergence action against Abutilon theophrasti (ABUTH) [4]	Pre-emergence action against Poa annua (POAAN) (Poa annua (POAAN) [5])	Post-emergence action against Abutilon theophrasti (ABUTH) [6]	Pre-emergence action against Stellaria media (STEME) (Stellaria media (STEME) [7])	Pre-emergence action against Matricaria inodora (MATIN) [8]	Pre-emergence action against Lolium rigidum (LOLRI) (Lolium rigidum (LOLRI))	Post-emergence action against Echinochloa crus-galli (ECHCG) [9]	Post-emergence action against Amaranthus retroflexus (AMARE) [10]	Post-emergence action against Stellaria media (STEME) (Stellaria media (STEME) [11])	Post-emergence action against Matricaria inodora (MATIN) [12]
Cc1ccnc(Oc2ncccn2)c1Sc1ccc(F)cc1F [Example I-210]	100%	100%	100%	100%	100%	100%	90%	100%	100%	100%	90%	–	–	–
Cc1ccnc(Oc2ncccn2)c1Sc1ccccc1 [Example I-216, 2-[(4-Methyl-3-phenylsulfanyl-2-pyridyl)oxy]pyrimidine]	100%	100%	100%	100%	100%	100%	100%	100%	100%	90%	100%	100%	100%	–
Cc1ccc(Cc2ccc(F)cc2F)c(Oc2ncccn2)n1 [Example I-444]	100%	100%	–	100%	–	100%	–	100%	100%	90%	–	–	90%	90%
Cc1cc(C)c(Cc2ccccc2)c(Oc2ncc(F)cn2)n1 [Example I-478, 2-[(3-Benzyl-4,6-dimethyl-2-pyridyl)oxy]-5-fluoropyrimidine]	100%	100%	100%	100%	100%	100%	100%	100%	100%	100%	90%	100%	100%	90%
Cc1cc(C)c(Cc2ccc(F)cc2)c(Oc2ncc(F)cn2)n1 [Example I-479]	100%	100%	100%	100%	100%	100%	100%	100%	100%	100%	100%	100%	100%	100%
Cc1cc(C)c(Cc2ccc(F)cc2F)c(Oc2ncc(F)cn2)n1 [Example I-481]	100%	100%	100%	100%	100%	100%	100%	100%	100%	100%	100%	100%	100%	90%
COc1cccc(Cc2c(C)cc(C)nc2Oc2ncc(F)cn2)c1 [Example I-484]	100%	100%	100%	100%	100%	100%	100%	100%	100%	100%	100%	100%	100%	100%
COc1cc(Cc2c(C)cc(C)nc2Oc2ncc(F)cn2)ccc1F [Example I-487]	100%	100%	100%	100%	100%	100%	100%	100%	100%	100%	100%	100%	100%	100%
Cc1ccc(Oc2ccccc2)c(Oc2ncc(Cl)cn2)n1 [Example I-500]	100%	100%	100%	100%	100%	100%	100%	100%	90%	100%	90%	–	100%	–
